In patent US20150023953A1, “METHOD OF TREATING CANCER” (priority 2012, published 2015):

Key:
[1] = system: HER2+ MBC patients with recurrent brain metastases; assay: Clinical Trial I: pharmacogenetic association of germline SNPs with PFS/OS during lapatinib monotherapy; format: in vivo, human
Text: Candidate genes for this experiment are listed below.
Cox proportional hazards model with Firth method.
(GWAS, 1M Genome-Wide SNPs (Illumina human 1M duo)). […] Examined genes were divided into three tiers as follows: […]

[2] = molecular target: CYP3A4 (Homo sapiens, UniProt P08684); conditions: cited from earlier work
Chain of CYP3A4 (P08684 whole entry): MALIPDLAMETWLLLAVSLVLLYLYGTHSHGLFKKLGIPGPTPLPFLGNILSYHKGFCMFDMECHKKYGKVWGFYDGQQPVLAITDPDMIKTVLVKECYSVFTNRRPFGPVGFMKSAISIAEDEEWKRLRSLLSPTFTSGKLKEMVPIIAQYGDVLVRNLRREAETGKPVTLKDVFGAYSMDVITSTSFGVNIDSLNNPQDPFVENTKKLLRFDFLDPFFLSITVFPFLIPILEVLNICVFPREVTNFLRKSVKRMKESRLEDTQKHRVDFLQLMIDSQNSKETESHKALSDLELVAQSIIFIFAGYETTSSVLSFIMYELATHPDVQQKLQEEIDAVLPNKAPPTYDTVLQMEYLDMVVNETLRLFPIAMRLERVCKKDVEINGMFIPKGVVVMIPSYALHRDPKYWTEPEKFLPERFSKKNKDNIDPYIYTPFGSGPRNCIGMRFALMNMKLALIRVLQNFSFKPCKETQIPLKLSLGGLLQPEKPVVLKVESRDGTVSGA

[3] = molecular target: T1, ABCG2 (BCRP) (Homo sapiens, UniProt Q9UNQ0); conditions: cited from earlier work
T1 sequence (Q9UNQ0 1-655): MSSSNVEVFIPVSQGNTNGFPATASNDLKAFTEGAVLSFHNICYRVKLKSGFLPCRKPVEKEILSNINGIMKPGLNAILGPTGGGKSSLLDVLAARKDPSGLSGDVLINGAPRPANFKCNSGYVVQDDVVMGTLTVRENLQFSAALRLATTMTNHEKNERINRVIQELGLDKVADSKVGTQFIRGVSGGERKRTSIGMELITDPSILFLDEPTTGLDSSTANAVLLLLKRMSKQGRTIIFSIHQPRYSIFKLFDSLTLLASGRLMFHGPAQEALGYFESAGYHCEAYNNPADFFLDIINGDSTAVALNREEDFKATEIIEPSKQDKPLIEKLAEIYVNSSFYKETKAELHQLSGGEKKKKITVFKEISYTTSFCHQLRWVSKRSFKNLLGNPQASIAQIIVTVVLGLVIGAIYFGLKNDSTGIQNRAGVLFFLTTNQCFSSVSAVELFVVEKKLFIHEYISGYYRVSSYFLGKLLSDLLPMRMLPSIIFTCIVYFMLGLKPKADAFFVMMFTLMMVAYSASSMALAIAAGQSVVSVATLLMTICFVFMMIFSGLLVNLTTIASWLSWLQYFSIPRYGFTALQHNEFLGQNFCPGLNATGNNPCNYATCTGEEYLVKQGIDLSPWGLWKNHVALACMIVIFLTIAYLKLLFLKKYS

[4] = molecular target: ABCB1 (P-GP) (Homo sapiens, UniProt P08183); conditions: cited from earlier work
Chain of ABCB1 (P-GP) (P08183 whole entry): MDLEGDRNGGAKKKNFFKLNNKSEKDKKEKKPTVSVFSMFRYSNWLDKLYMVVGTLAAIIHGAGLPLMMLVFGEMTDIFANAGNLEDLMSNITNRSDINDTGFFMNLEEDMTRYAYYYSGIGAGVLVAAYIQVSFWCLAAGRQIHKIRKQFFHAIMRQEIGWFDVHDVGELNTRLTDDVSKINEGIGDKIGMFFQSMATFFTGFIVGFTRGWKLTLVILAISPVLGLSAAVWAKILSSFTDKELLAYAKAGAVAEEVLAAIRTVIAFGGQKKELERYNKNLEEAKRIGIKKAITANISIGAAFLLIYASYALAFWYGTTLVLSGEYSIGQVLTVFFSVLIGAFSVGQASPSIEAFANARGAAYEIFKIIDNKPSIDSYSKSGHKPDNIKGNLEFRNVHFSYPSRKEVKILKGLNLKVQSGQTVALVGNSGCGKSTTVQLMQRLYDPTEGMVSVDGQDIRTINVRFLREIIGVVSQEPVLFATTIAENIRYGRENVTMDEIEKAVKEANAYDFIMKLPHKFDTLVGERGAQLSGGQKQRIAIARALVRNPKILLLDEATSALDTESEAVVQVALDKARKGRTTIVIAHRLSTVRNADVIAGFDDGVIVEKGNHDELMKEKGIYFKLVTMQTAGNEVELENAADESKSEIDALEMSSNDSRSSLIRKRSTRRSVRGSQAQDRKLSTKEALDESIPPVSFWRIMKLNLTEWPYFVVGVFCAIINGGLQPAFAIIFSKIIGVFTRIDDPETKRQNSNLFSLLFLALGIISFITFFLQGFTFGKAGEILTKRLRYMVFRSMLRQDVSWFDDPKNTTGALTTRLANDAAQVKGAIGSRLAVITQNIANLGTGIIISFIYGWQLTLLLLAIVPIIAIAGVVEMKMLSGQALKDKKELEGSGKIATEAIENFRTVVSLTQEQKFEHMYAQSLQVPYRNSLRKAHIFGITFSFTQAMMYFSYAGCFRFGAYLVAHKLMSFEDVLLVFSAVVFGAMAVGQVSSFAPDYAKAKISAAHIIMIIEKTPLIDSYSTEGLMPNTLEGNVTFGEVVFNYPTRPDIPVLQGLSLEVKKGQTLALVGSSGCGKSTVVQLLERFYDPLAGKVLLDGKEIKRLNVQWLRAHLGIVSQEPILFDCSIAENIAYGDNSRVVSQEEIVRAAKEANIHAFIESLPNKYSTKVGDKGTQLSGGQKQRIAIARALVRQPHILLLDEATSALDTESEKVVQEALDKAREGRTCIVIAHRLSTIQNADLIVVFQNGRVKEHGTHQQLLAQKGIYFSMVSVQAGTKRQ

[5] = system: HER2+ MBC patients; assay: Meta-analysis and GWAS across Trial I and Trial II study-treatment arms; format: in vivo, human; conditions: across the trials or study arms
Text: (GWAS, 1M Genome-Wide SNPs (Illumina human 1M duo)). […] Examined genes were divided into three tiers as follows:
• GWAS SNPs: Bonferroni threshold for significance p=0.05/1M=5×10-8

[6] = system: HER2+ MBC patients with disease progression following trastuzumab; conditions: Trial II
Protocol: Fifty five single nucleotide polymorphisms (SNPs) with functional consequence in 24 candidate genes were evaluated. The assay platform used to genotype these SNPs was the Illumina Human 1M-Duo BeadChip.
Statistical analysis of genetic associations were evaluated using an additive test. For any significant marker identified from the additive test, specific contrasts of interest between different genotypes will be explored to determine risk genotype(s). Cox proportional hazards model with Firth method. Any covariate significant at p≦0.05 in the multivariate Cox model will be included.
Testing for associations of SNPs with progression free survival (PFS) and overall survival (OS) during lapatinib treatment was performed using Cox proportional hazards methods, with covariate adjustment.
Associations were evaluated using an additive genetic test, using a multivariate Cox proportional hazards model adjusting for significant clinical covariates and race/ethnicity difference. […] The primary endpoints was Progression Free Survival (PFS), where the secondary endpoint was Overall Survival (OS). […] Variants were assigned to tiers for analysis, with different association significance thresholds and these were specified prior to analysis to adjust for number of SNP tests, but not for number of endpoints and groups, as follows: • Candidate genes:

Question: Which results are given for `CS(=O)(=O)CCNCc1ccc(-c2ccc3ncnc(Nc4ccc(OCc5cccc(F)c5)c(Cl)c4)c3c2)o1` [lapatinib, N-(3-chloro-4-{[(3-fluorophenyl)methyl]oxy}phenyl)-6-[5-({[2-(methylsulfonyl)ethyl]amino}methyl)-2-furanyl]-4-quinazolinamine]?
Answer: association of VEGFR2 rs1870377 18487A>T with OS [1]: not seen; association of SNPs with progression-free survival (PFS) ([1]; 55 SNPs in 24 candidate genes): No SNPs were statistically significantly associated; allelic hazard ratio for overall survival (OS), VEGFA rs3025039 936C>T ([1]; lapatinib monotherapy, improved OS for T allele carriers, range in brackets): 0.21 (0.08-0.52); inhibitor status [2]: inhibitor; substrate status [2]: substrate; substrate status [3]: (BCRP) lapatinib is substrate; substrate status [4]: (P-GP) lapatinib is substrate; GWAS signals (p<5×10-8) with common markers (MAF>5%) [5]: no strong signals; association of VEGFA rs3025039 936C>T with OS [6]: not seen; association of SNPs with progression-free survival (PFS) ([6]; 55 SNPs in 24 candidate genes): No SNPs were statistically significantly associated; allelic hazard ratio for OS, VEGFR2 rs1870377 18487A>T Q472H ([6]; T allele carriers showing improved OS, range in brackets): 0.47 (0.3-0.73); allelic hazard ratio for OS, carriage of either IGFR1 minor allele (rs2037448 or rs7181022) vs wild type ([6]; carriers have poorer OS, range in brackets): 5.0 (2.2-10.0)
